Laboratory results: patent US9504702B2, “Methods of inhibition of protein fucosylation in vivo using fucose analogs” (Seattle Genetics, Inc., priority 2010, dated 2016)

What was measured:
[1] = system: LP-1, a human multiple myeloma cell line (IgG fucosylation); experiment: Fucosylation of LP-1-generated IgG, AOL dot blot; assay type: cell-based; details: for activity at 100 µM: Homo sapiens, LP-1, 120 h, 5 days, AOL dot blot, multiple samples separated by semicolon, read-out: % of control fucosylated IgG value
Experimental: To further evaluate the activities of different fucose analogs, 48 different fucose analogs and other four glycosylation inhibitors were tested for their ability to affect the fucosylation the LP-1-generated IgG. LP-1 cells (250,000 cells/mL, 3 mL per compound in 6-well plates) were incubated with 100 μM of each fucose analog for 5 days at 37° C. with a humidified atmosphere of 5% CO2 in IgG-depleted tissue culture media (90% RPMI with 10% IgG-depleted heat inactivated FBS). The IgG was isolated as described above using only 0.5 mL of MabSelect™ protein A resin slurry and one spin cup per sample with elution in 400 μL of IgG elution buffer into 25 μL of 9 M Tris buffer, pH 9. The eluates were concentrated to 10-20 μL per sample and 2 μL of each of the concentrated eluates were dotted onto a nitrocellulose membrane and stained with Ponceau S to estimate and adjust the sample loading for AOL staining. From this estimation of total protein in each sample, approximately 0.5 μg of each sample was dotted onto the membrane, air-dried, and stained with Ponceau S. An image of this stained membrane was captured using an Alpha Innotech FlourChem® Q system. The membrane was then blocked with 5% Bovine Serum Albumin (BSA) in Tris Buffered Saline (TBS) for 1 hr, washed with TBST (TBS with […]) 3 times and then incubated with 5 μg/ml biotinylated-AOL for 1 hr. The membrane was washed again with TBST 3 times, followed by Streptavidin-HRP incubation for 30 min and final washes with TBST 3 times.

[2] = system: P-selectin ligand on Ramos cells; experiment: Cell surface P-selectin ligand by FACS, P-selectin fusion protein, Ramos; assay type: cell-based, human
Experimental: 100 μM of each inhibitor was used under standard culture conditions for approximately 1-2 weeks with regular changes of culture medium including fresh inhibitor. After the incubation period, the cells were analyzed by FACS using four different detection reagents: biotinylated-Lens culimaris agglutinin-A (LCA), anti-Lewis' antibody (anti-SSEA1), an anti-Lewis^y antibody (cBR96), and a Recombinant Human P-Selectin/CD62P/Fc Fusion protein. The procedure involved washing of the cells with FACS buffer (PBS+10% bovine serum albumin+0.02% sodium azide) 3 times followed by incubation with the primary detection reagent for 1 hr at 4° C., followed by 3 washes with FACS buffer and then incubation with the secondary detection reagent for 1 hr at 4° C. The cells were finally washed with FACS buffer 3 times and resuspended in FACS buffer and examined using a BD FACScan instrument. […] The P-selectin fusion protein detects P-selectin ligand present on the surface of cells, an interaction which involves the sialyl Lewis' epitope present of the P-selectin ligand.

[3] = system: antibody core fucosylation (antibodies that did not bind to KLH, recovered from protein A column); experiment: In vivo antibody fucosylation after ip dosing (Example 1, Study 1), AOL lectin dot blot; details: 150 mg/kg ip daily for 7 days
Experimental: Female BALB/c mice were immunized with Keyhole Limpet Hemocyanin (KLH) 30-60 days prior to starting this study. For the first study, mice were dosed ip with 150 mg/kg of alkynyl fucose (SGD-1887), alkynyl fucose peracetate (SGD-1890), 2-fluorofucose (SGD-2083), or 2-fluorofucose triacetate (SGD-2084) daily for 7 days or were untreated. On day 2, mice were also boosted with KLH. On the day after the last ip dose, mice were terminally bled and serum obtained. For the second study, mice were given 100 mM of 2-fluorofucose (SGD-2083) in their drinking water or given untreated water for 7 days, boosted with KLH, and continued with 100 mM 2-fluorofucose containing drinking water or untreated water for 7 more days before being terminally bled. Serum was then obtained. No mice died in either study. For both studies, serum was passed over a commercial anti-KLH affinity column to obtain KLH-specific polyclonal antibodies. The flow through from the anti-KLH affinity column was passed over a commercial protein A column to obtain the remaining antibodies.
Dot blots: 0.5 μg each of antibodies from untreated and treated animals, as well as standards of antibody cAC10 having known amounts of core fucosylation (0 to 100% fucose), were blotted onto a nitrocellulose membrane. The proteins levels were visualized by Ponceau staining. The blot was probed with biotinylated Aspergillus oryzae L-fucose-specific lectin (AOL) (which binds to fucosylated antibodies) and developed with streptavidin HRP and ECL. Gel loading (visible) and fucose signals (bioluminescence) were measured with an Alpha Innotech camera and quantitated with the machine software.

[4] = system: antibody core fucosylation (CHO DG44 cell line producing humanized IgG1 anti-CD70 antibody h1F6); experiment: Inhibition of antibody core fucosylation in CHO DG44 cell culture producing h1F6; assay type: cell-based; details: 120 h, day 5, CHO DG44 h1F6; for Inhibition at 50 μM: 50 μM fucose analog, read-out: Inhibition at 50 μM
Experimental: (§1) Fucose analogs have been evaluated for their effect on antibody core fucosylation at concentrations of 50 μM and 1 mM generally as described in Published US Patent Application 2009-0317869. Briefly, the protocol was as follows: A CHO DG44 cell line producing a humanized IgG1 anti-CD70 monoclonal antibody, h1F6 (see International Patent Publication WO 06/113909) was cultured at 7.5×10^5 cells per mL in 2 mLs of CHO culture media at 37°, 5% CO2 and shaking at 100 RPM in a 6 well tissue culture plate. Media was supplemented with insulin like growth factor (IGF), penicillin, streptomycin and either 1 mM or 50 μM of the fucose analog. On day 5 post inoculation, the culture was centrifuged at 13000 RPM for 5 minutes to pellet the cells; antibodies were then purified from supernatant.
(§2) Antibody purification was performed by applying the conditioned media to protein A resin pre-equilibrated with 1× phosphate buffered saline (PBS), pH 7.4. After washing resin with 20 resin bed volumes of 1×PBS, antibodies were eluted with 5 resin bed volumes of Immunopure IgG elution buffer (Pierce Biotechnology, Rockford, Ill.). A 10% volume of 1M Tris pH 8.0 was added to neutralize the eluted fraction.

[5] = system: antibodies (h1F6 produced by CHO DG44 cell line); experiment: Incorporation of fucose analogs into antibodies in CHO DG44 cell culture; assay type: cell-based
Experimental: as §1, §2
Certain other fucose analogs were tested for their ability to be incorporated into antibodies. These fucose analogs were tested at concentrations of 50 μM and 1 mM using the methodology as described above.

[6] = system: LP-1 cells (1,6-fucosylation on the antibody); experiment: Fucosylation status of LP-1-generated IgG by reducing PLRP-MS; assay type: cell-based, human; details: 5 days
Text: To further define the results of the AOL dot blot, samples of the IgGs produced by cells treated with the following fucose analogs (that gave moderate to strong decreases in the dot blot AOL signal) were isolated and examined by reducing PLRP-MS to verify the fucosylation status using the MW of the heavy chain: alkynyl fucose peracetate; 5-vinylfucose tetraaceate; 5-methylketofucose tetraacetate; 6-bromofucose tetraacetate; 6-fluorofucose tetraacetate; 5-ethylfucose tetraacetate; 5-epoxyfucose tetraacetate; 6′6-difluorofucose tetraacetate; 6-keto-6-ethyl fucose tetraacetate; and 2-fluorofucose peracetate.
40 mL samples of LP-1 cells (250,000 cells/mL) were treated with 100 μM of a fucose analog for 5 days as described above, and the IgGs were purified as described using protein A resin. The yields were estimated by UV spectroscopy assuming an extinction coefficient of 1.4 AU/(mg/mL). Seven of the ten compounds yielded enough IgG to perform the analysis (use of SGD-2067, SGD-1964, and SGD-2020 yielded <10 μg of IgG, likely due to toxicity of the analogs to the cells). The remaining IgGs were reduced with 10 mM DTT at 37° C. for 15 min and were separated on PLRP followed by MS analysis using a QTOF mass spectrometer. The resulting heavy chain peaks were examined and compared to the IgG generated by untreated cells.
The mass spectrometry signals were evaluated by comparing the peak height of the heavy chain versus heavy chain minus fucose and heavy chain minus fucose plus the mass of the fucose analog (which would arise if there was incorporation of the analog into the antibody carbohydrate).

Row | SMILES | activity at 100 µM ([1]; LP-1 cells) [%] | signal for P-selectin ligand (increase upon treatment) [2] | mortality [3] | fucosylation levels of the antibodies reduced, as compared to the untreated controls ([3]; non-KLH antibodies from protein A column, dot blot, on average) | Inhibition at 50 μM [4] [%] | inhibition of IgG fucosylation in human cells (decrease in AOL signal, dot blot) ([1]; 100 μM, LP-1 cells) | dot blot results (% fucose signal of control) ([1]; LP-1-generated IgG, 100 μM) | % Incorporation ([5]; 50 uM) [%] | % Incorporation ([5]; 1 mM) [% at] | inhibition at 1000 µM ([4]; 1 mM fucose analog) [%] | PLRP/MS (inhibition or incorporation) ([6]; 100 μM, in words) | inhibition at 100 µM ([6]; Homo sapiens, 120 h, heavy chain peak heights, read-out: PLRP/MS fucose inhibition) [%]
1 | C#CC(O)[C@@H](O)[C@@H](O)[C@H](O)C=O (some centres unmarked) [SGD-1887, 5-ethynylarabinose] | 3 | not observed | No mice died | about one third | > 80 | – | – | – | – | – | – | –
2 | CC(=O)OC1OC(CBr)[C@@H](OC(C)=O)[C@@H](OC(C)=O)[C@@H]1OC(C)=O (stereo partly drawn) [SGD-1969, (3S,4R,5S)-6-(bromomethyl)tetrahydro-2H-pyran-2,3,4,5-tetrayl tetraacetate] | 1 | – | – | – | 50 | potentially strong inhibitors | 1 % fucose signal of control | ~50 | 20 | 80 | Partial incorporator | 20
